The values that follow come from PubChem BioAssay (NCI).

Each structure is given as a SMILES string.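 All cell lines were grown in 96-well plates and treated with compound for 48 hours. GI50 marks 50% less growth. TGI is the concentration that stops growth completely.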

Among the test systems are HOP-62 NSCLC; M14 melanoma; NCI-H460 lung; SF-268 CNS; SK-MEL-28 melanoma; TK-10 renal; UACC-62 melanoma; DU-145 prostate; IGROV1 ovarian.
Holding throughout (experiment): growth of human tumour cells (NCI), 48 h

Consider `COC1/C=C/C(C)C(C(C)C(OC)C(C)CCC(=O)C(C)C(C/C=C/N(C)C=O)OC)OC(=O)/C=C/C=C(\C)CC(OC)C(OC)C2=CC(=O)O[C@@H](C(C)C(OC)CC(OC)/C=C/C(C)C(O)C1)[C@H]2O` (some centres not stated), for which the TGI with HOP-62 NSCLC was determined as 0.218 µM; in the assay with M14 melanoma, 0.309 µM; in the assay on NCI-H460 lung, 0.553 µM; in the assay with SF-268 CNS it was 0.407 µM; with SK-MEL-28 melanoma, 0.878 µM; in the assay with TK-10 renal, 0.166 µM. Moreover, in the assay with UACC-62 melanoma, the TGI was 0.314 µM.
Consider `Nc1ccc(-n2c(=O)oc3ccc(Cl)cc3c2=O)c(Cl)c1`, for which the GI50 in the assay with DU-145 prostate was 0.202 µM; with HOP-62 NSCLC, 0.202 µM; in the assay with IGROV1 ovarian, 0.14 µM; in the assay with M14 melanoma, 0.104 µM; in the assay on NCI-H460 lung, 0.109 µM; with SF-268 CNS, 0.108 µM. Besides, the GI50 is 0.1 µM in the assay on SK-MEL-28 melanoma, 0.187 µM in the assay on TK-10 renal and 0.0527 µM in the assay with UACC-62 melanoma. Also, the TGI amounted to 14 µM with DU-145 prostate; 1.59 µM in the assay on HOP-62 NSCLC; 36.7 µM in the assay on IGROV1 ovarian; 0.68 µM with M14 melanoma; 3.74 µM in the assay with NCI-H460 lung; 2.33 µM in the assay with SF-268 CNS. The TGI is 0.73 µM with SK-MEL-28 melanoma, 20.4 µM in the assay on TK-10 renal and 0.22 µM in the assay on UACC-62 melanoma.
Turning to `CN1CCCCC(C(O)(c2ccccc2)c2ccccc2)C1=O` (configuration not stated), the TGI with HOP-62 NSCLC, in the assay on IGROV1 ovarian, with M14 melanoma, with NCI-H460 lung, in the assay on SF-268 CNS and with SK-MEL-28 melanoma was > 100 µM each time. Further, the TGI in the assay with TK-10 renal and with UACC-62 melanoma was > 100 µM throughout.
Consider `COC(=O)n1c(CBr)c(Br)c2ccccc21`, for which the TGI in the assay on HOP-62 NSCLC is 54 µM; in the assay on IGROV1 ovarian it was 93.1 µM; in the assay with M14 melanoma, > 100 µM; with NCI-H460 lung it was 74.9 µM; in the assay on SF-268 CNS, 75.8 µM; with SK-MEL-28 melanoma, > 100 µM. For the same compound, the TGI in the assay with TK-10 renal worked out at 94 µM; in the assay with UACC-62 melanoma it was 86.4 µM.
With `COc1ccc2c(c1)CC[C@@H]1[C@@H]2CC[C@]2(C)C(=O)/C(=C/c3cc(OC)c(OC)c(OC)c3)C[C@@H]12`, the TGI is > 100 µM in the assay with DU-145 prostate; 30.7 µM in the assay on HOP-62 NSCLC; 41.2 µM in the assay on M14 melanoma; > 100 µM with NCI-H460 lung; 34.2 µM in the assay with TK-10 renal; > 100 µM in the assay on UACC-62 melanoma.
On to `COC(=O)c1cccc(C(=O)OC)c1`, for which the TGI in the assay with HOP-62 NSCLC, in the assay with M14 melanoma, in the assay on NCI-H460 lung, with SF-268 CNS, in the assay with SK-MEL-28 melanoma and in the assay on TK-10 renal was > 100 µM throughout.
Take `Nc1nc(SCCC/C=C/I)nc2c1ncn2C1OC(CO)C(O)C1O` (configuration not stated): the TGI in the assay with HOP-62 NSCLC, with IGROV1 ovarian, in the assay with M14 melanoma, in the assay with NCI-H460 lung, in the assay with SF-268 CNS and with SK-MEL-28 melanoma was > 202 µM throughout. Further, the TGI in the assay with TK-10 renal and with UACC-62 melanoma was > 202 µM each time.
As to `CC(=O)Nc1ccc(-c2nnc(SCC(=O)Nc3ccccc3C)o2)cc1`, the TGI in the assay with HOP-62 NSCLC, in the assay on IGROV1 ovarian, in the assay on M14 melanoma, in the assay with NCI-H460 lung, with SF-268 CNS and in the assay with SK-MEL-28 melanoma was > 100 µM in each case. Also, the TGI with TK-10 renal and with UACC-62 melanoma was > 100 µM each time.
For the compound `CC(C)CCC[C@@H](C)[C@H]1CCC2C3=CCC4C(=O)C=CC(=O)C4C3CC[C@@]21C` (some centres not stated), the GI50 is 0.507 µM in the assay on DU-145 prostate; 0.552 µM in the assay on HOP-62 NSCLC; 0.26 µM in the assay on IGROV1 ovarian; 0.324 µM with NCI-H460 lung; 0.566 µM with SF-268 CNS; 0.449 µM in the assay with SK-MEL-28 melanoma. The figures for the GI50 in the assay on TK-10 renal and with UACC-62 melanoma were 2.65 µM and 0.542 µM, respectively. For the same compound, the TGI was > 100 µM with DU-145 prostate; > 100 µM in the assay on HOP-62 NSCLC; 0.719 µM in the assay with IGROV1 ovarian; 2.59 µM in the assay on NCI-H460 lung; > 100 µM with SF-268 CNS; > 100 µM with SK-MEL-28 melanoma. The TGI in the assay with TK-10 renal and in the assay with UACC-62 melanoma was > 100 µM throughout.
As for `Clc1ncnc2c1ncn2CCCCCCCCCCCCn1cnc2c(Cl)ncnc21`, the TGI in the assay with HOP-62 NSCLC is 33 µM; in the assay with IGROV1 ovarian, 15.7 µM; with M14 melanoma, 29.6 µM; with NCI-H460 lung it was 31.8 µM; in the assay with SF-268 CNS, 27.7 µM; with SK-MEL-28 melanoma, 6.82 µM. Moreover, the TGI with TK-10 renal was found to be 54.1 µM; in the assay on UACC-62 melanoma, 26.9 µM.
Turning to `CC(=O)NC1=C(NCc2ccc(Cl)cc2)C(=O)c2ccccc2C1=O`, the TGI in the assay with HOP-62 NSCLC was > 50 µM; with IGROV1 ovarian, 49.6 µM; in the assay on M14 melanoma, 13.5 µM; in the assay on NCI-H460 lung, > 50 µM; with SF-268 CNS it was > 50 µM; in the assay on SK-MEL-28 melanoma, 11.5 µM. Besides, the TGI in the assay with TK-10 renal is 15.1 µM; in the assay with UACC-62 melanoma, 8.61 µM.
As for `COc1nc2[nH]ccc2c(=O)n1C`, the TGI with IGROV1 ovarian, in the assay with M14 melanoma, in the assay with NCI-H460 lung, in the assay with SF-268 CNS, in the assay with SK-MEL-28 melanoma and in the assay on TK-10 renal was > 100 µM in each case.
